Results reported in patent US11160865B2, “Liquid pharmaceutical composition for the delivery of active ingredients” (NOVALIQ GMBH, priority 2010, dated 2021).
Several values for one entry are separate records, joined by “and”; a condition that tells them apart may be missing. Identical values can stand only once. Entries after “also recorded” stand apart in the source; their conditions may differ. Like-named read-outs stand apart in the source and are kept apart here.

Legend:
[1] = system: rabbit eyes (cornea); assay: Ex-vivo eye irritation test (EVEIT), healing of corneal abrasion lesions; settings: for Final size of corneal lesions: Example 2, after 3 days of hourly dosing 12 h/day, runs are replicates; for starting area of corneal lesions: Example 3; for outcome of corneal lesions: Example 3, after 2 or 3 days of exposure
[2] = system: rabbit eyes (cornea)
[3] = Example 3, within 3 days, first set of experiments

| outcome of corneal lesions [2] | starting area of corneal lesions [2] | Compound | effect on healing of abraded corneal lesions ([1]; Example 2) | morphological and histological evaluation of cornea at end of test ([1]; Example 2) | penetration into the cornea by OCT imaging ([1]; Example 2) | physiological tolerability ([1]; Example 2) | Final size of corneal lesions [1] | starting area of corneal lesions [1] [mm^2] | outcome of corneal lesions [1] | area of corneal damage after treatment [1, 3] [mm^2] | reduction of area of corneal damage [1, 3] [%] |
| --- | --- | --- | --- | --- | --- | --- | --- | --- | --- | --- | --- |
| – | – | CCCCCC(F)(F)C(F)(F)C(F)(F)C(F)(F)F [F4H5, 1-perfluorobutylpentane] | positive effect on the healing of damaged cornea similar to that of hyaluronic acid; also recorded: Substantial healing | healed very well | no indication of penetration | better tolerated than culture medium | 0.19 mm^2 and 1.01 mm^2 and 0.06 mm^2 | – | – | – | – |
| complete remission | 10.54-16.65 mm^2 | CCCCCCCCC(F)(F)C(F)(F)C(F)(F)C(F)(F)C(F)(F)C(F)(F)F [F6H8, 1-perfluorohexyloctane] | – | – | – | – | – | – | – | – | – |
| – | – | benzalkonium chloride [BAC] | rapid growth of the lesions | complete disintegration of the corneal epithelium | – | – | – | 11.23 | complete epithelial loss | – | – |
| – | – | hyaluronic acid [HA] | Substantial healing | healed very well | – | – | 0.36 mm^2 and 0.24 mm^2 and 0.00 mm^2 | 12.16 | complete healing | 0.32 | 97.4 |
